The structures appear in SMILES notation. A value given as a limit tells only on which side of the number the result lay.

As usually defined, the GI50 is the concentration at which growth is held to half of that of the control.

One test deals with HCT116^MTAP Deletion cells. In words: Anti-proliferation assay on cells (Cell-Titer Glo, 10 days). Type of test: cell-based. The settings on record: 240 h, HCT116^MTAP Deletion cells, 10 days incubation, CTG readout; read-out: HCT116^MTAP Deletion GI50. How it is done: HCT116^MTAP Deletion cells were from Pharmaron (China); HCT116 cells were from ATCC; McCoy's 5A medium was purchased from Invitrogen (USA); penicillin-streptomycin and fetal bovine serum were purchased from Gibco (USA); a 384-well plate was purchased from PerkinElmer (USA); and Cell-Titer Glo reagent was purchased from Promega (USA).
Compound dissolution: All the compounds were dissolved in dimethyl sulfoxide (DMSO) and then stored. The compounds were stored at room temperature in a dry condition for 3 months for short term storage or at -20 °C for long term storage.
Cell culture and passaging
The cells were cultured strictly in accordance with ATCC requirements. The cell culture medium (McCoy's 5A medium + 10% fetal bovine serum + 1% penicillin + streptomycin) was transferred to a 15 mL centrifuge tube and centrifuged at 1000 rpm for 5 min. The supernatant was removed. The cells were resuspended with complete culture medium, inoculated into a culture dish at the required density, and cultured in an incubator at 37 °C, 95% humid air, and 5% carbon dioxide. The culture medium was replenished or the cells were passaged every 2-3 days depending on the cell growth condition.
Cell proliferation activity assay
When the confluency of cells in the culture dish reached about 90%, the cells were washed twice with PBS, and then treated with trypsin to become single cells. The cells were counted, and 40µl of the cells was inoculated into each well of a 384-well plate (50 cells/well). The plate was equilibrated at 37 °C and 5% carbon dioxide for 10 to 15 minutes. The compounds were injected into the 384-well plate using Echo550, and positive control and negative control (0.1% DMSO) were set up. Each compound was subjected to a 3-fold dilution, resulting in 10 concentration gradients, in duplicate, and the content of DMSO was 0.1%. The 384-well plate was incubated in a cell culture incubator for 10 days.
Then, 40 µl of cell proliferation assay reagent (CTG) was added to the 384-well plate, and the plate was shaken to mix well. Then, the 384-well plate was incubated at 37 °C and 5% carbon dioxide in the dark for 30 minutes. The data were read using the Envision multifunctional microplate reader. […] According to the different drug concentrations and their corresponding inhibition rates, the GI50 curve was drawn using GraphPad 8.0 software. The data were analyzed, and the final IC50 value was obtained.
`CCCN(C(=O)C(=O)Nc1cnc(N)c2c1cnn2C)C1COCc2cc(C(F)(F)F)ccc21` (stereo not shown) [Example 97]: the GI50 is below 0.01 µM.
Still for that read-out and setting: under `CN(C(=O)C(=O)Nc1cnc(N)c2c1cnn2C)C1COCc2cc(C3(C(F)(F)F)CC3)ccc21` (stereo not shown) [Example 237] stands below 0.01 µM; under `CN(C(=O)C(=O)Nc1cnc(N)c2c1cnn2C)C1CCN(c2ccccc2)C1` (stereo not shown) [Example 130], 0.1 to 1 µM; under `CCC(C)N(Cc1ccc(OC2CC2)cn1)C(=O)C(=O)Nc1cnc(N)c(C)c1` (stereo not shown) [Example 83], 0.01 to 0.1 µM.
Same read-out and setting: the figure for `CN(C(=O)C(=O)Nc1cnc(N)c2c1cnn2C)C1CCOC1` (stereo not shown) [Example 126] is 1 to 10 µM; for `CN(C(=O)C(=O)Nc1cnc(N)c2c1cnn2C)C1COCc2cc(OC3CC3)ccc21` (stereo not shown) [Example 171] it is 0.01 to 0.1 µM.
Same read-out and setting: the figure for `CC1OCc2c(NC(=O)C(=O)N(Cc3ccc(C(F)(F)F)cn3)Cc3ccnc4[nH]ccc34)cnc(N)c21` (stereo not shown) [Example 81] is below 0.01 µM; for `CC(c1cscn1)N(Cc1ccc(C(F)(F)F)cn1)C(=O)C(=O)Nc1cnc(N)c2c1COC2` (stereo not shown) [Example 68] it is 0.01 to 0.1 µM.
Turning to `CCC(C)N(Cc1ccc(S(F)(F)(F)(F)F)cc1)C(=O)C(=O)Nc1cnc(N)c(C)c1` (stereo not shown) [Example 69], the GI50 was 0.1 to 1 µM.
Still for that read-out and setting: under `CN(C(=O)C(=O)Nc1cnc(N)c2c1cnn2C)C1COc2cc(C(F)(F)F)c(F)cc21` (stereo not shown) [Example 199] stands 0.01 to 0.1 µM; under `CN(Cc1ccc2sc(C3CCOCC3)nc2c1)C(=O)C(=O)Nc1cnc(N)c2c1COC2` [Example 67], 1 to 10 µM.
The same measure, in the same setting: the figure for `CN(C(=O)C(=O)Nc1cnc(N)c2c1cnn2C)C1COc2cc(-c3nncn3C3CC3)ccc21` (stereo not shown) [Example 228] is 0.1 to 1 µM.
Same read-out and setting: the figure for `CN(C(=O)C(=O)Nc1cnc(N)c2c1cnn2C)C1CCCOC1` (stereo not shown) [Example 129] is 1 to 10 µM; for `CN(C(=O)C(=O)Nc1cnc(N)c2c1cnn2C)C1COCc2cc(C3(C#N)CC3)ccc21` (stereo not shown) [Example 218] it is below 0.01 µM.
For `CN(C(=O)C(=O)Nc1cnc(N)c2c1cnn2C)C1COc2cc(C#N)ccc21` (stereo not shown) [Example 198], the GI50 fell in the range of 0.01 to 0.1 µM.
Still for that read-out and setting: under `CN1CCN(c2ccc3c(c2)COCC3N(C)C(=O)C(=O)Nc2cnc(N)c3c2cnn3C)CC1` (stereo not shown) [Example 149] stands 0.01 to 0.1 µM; under `CCC(C)N(Cc1ncc(C)s1)C(=O)C(=O)Nc1cnc(N)c(C)c1` (stereo not shown) [Example 66], 1 to 10 µM; under `CCC(C)N(Cc1nc(C)cs1)C(=O)C(=O)Nc1cnc(N)c(C)c1` (stereo not shown) [Example 76], 0.1 to 1 µM.
Still for that read-out and setting: under `CCC(C)N(Cc1ccc(C(F)(F)F)nc1)C(=O)C(=O)Nc1cnc(N)c(C)c1` (stereo not shown) [Example 57] stands 0.1 to 1 µM; under `CCC(C)N(Cc1cc(C(F)(F)F)ccn1)C(=O)C(=O)Nc1cnc(N)c(C)c1` (stereo not shown) [Example 105], 0.1 to 1 µM.
The same measure, in the same setting: under `CN(C(=O)C(=O)Nc1cnc(N)c2c1cnn2C)C1COc2cc(C3=CCCOC3)ccc21` (stereo not shown) [Example 169] stands 0.01 to 0.1 µM; under `CN(C(=O)C(=O)Nc1cnc(N)c2c1cnn2C)C1COc2cc(S(C)(=O)=O)ccc21` (stereo not shown) [Example 189], 0.01 to 0.1 µM.
Turning to `Cc1cc(NC(=O)C(=O)N(Cc2ccc(C(F)(F)F)cn2)C2CCCc3cn[nH]c32)cnc1N` (stereo not shown) [Example 60], the GI50 lay within 0.1 to 1 µM.
On the same count and under the same terms, the figure for `CN(C(=O)C(=O)Nc1cnc(N)c2c1cnn2C)C1COCc2nc(-c3ccccc3F)ccc21` (stereo not shown) [Example 225] is below 0.01 µM; for `Cc1cn(-c2ccc3c(c2)COCC3N(C)C(=O)C(=O)Nc2cnc(N)c3c2cnn3C)cn1` (stereo not shown) [Example 145] it is 0.01 to 0.1 µM; for `CCC(C)N(Cc1cccc(C(F)(F)F)n1)C(=O)C(=O)Nc1cnc(N)c(C)c1` (stereo not shown) [Example 87] it is 0.1 to 1 µM.
Regarding `CC(C)Oc1ccc2c(c1)COCC2N(C)C(=O)C(=O)Nc1cnc(N)c2c1cnn2C` (stereo not shown) [Example 128], the GI50 was 0.01 to 0.1 µM.
On the same count and under the same terms, under `Cc1ncc(-c2cc3c(cn2)C(N(C)C(=O)C(=O)Nc2cnc(N)c4c2cnn4C)COC3)s1` (stereo not shown) [Example 222] stands 0.01 to 0.1 µM; under `CN(C(=O)C(=O)Nc1cnc(N)c2c1cnn2C)C1CCOCC1` [Example 120], 1 to 10 µM.
`CN(C(=O)C(=O)Nc1cnc(N)c2c1cnn2C)C1COCc2cc(Cl)c(Cl)cc21` (stereo not shown) [Example 158]: the GI50 is below 0.01 µM.
Still for that read-out and setting: the figure for `CN(C(=O)C(=O)Nc1cnc(N)c2c1cnn2C)C1COc2cc(OC(F)F)ccc21` (stereo not shown) [Example 204] is 0.01 to 0.1 µM.

Staying with this test, now noted: HCT116^MTAP Deletion cells, 10 days incubation, CTG readout; read-out: HCT116^MTAP Deletion GI50.
As for `Cn1ncc2c(NC(=O)C(=O)N(Cc3ccc(C(F)(F)F)cn3)CC3CC3)cnc(N)c21` [Example 43], the GI50 is below 0.01 µM.
For `Cc1cc(NC(=O)C(=O)N(Cc2ccc(C#N)cn2)[C@H](C)c2ncccn2)cnc1N` [Example 28], the GI50 was in the range of 1 to 10 µM.
For the compound `Cc1cc(NC(=O)C(=O)N(Cc2ccc(C(F)(F)F)cn2)C2CCCOC2)cnc1N` (single isomer, unassigned) [Example 14-P2], the GI50 lay in the range of 0.1 to 1 µM.
Same read-out and setting: under `Cc1cc(NC(=O)C(=O)N(Cc2ccc(C3=CCOCC3)nn2)[C@H](C)c2ncccn2)cnc1N` [Example 42] stands 0.1 to 1 µM; under `Cc1cc(NC(=O)C(=O)N(Cc2ccc(C(F)(F)F)cn2)C(C)c2cscn2)cnc1N` (single isomer, unassigned) [Example 19-P1], 0.01 to 0.1 µM.
On the same count and under the same terms, under `C[C@H](c1ncccn1)N(Cc1ccc(C(F)(F)F)cn1)C(=O)C(=O)Nc1cnc(N)c2ccncc12` [Example 32] stands 0.1 to 1 µM.
For the compound `CN(C(=O)C(=O)Nc1cnc(N)c2c1cnn2C)C1COc2cc(C3=CCOCC3)ccc21` (single isomer, unassigned) [Example 153-P1], the GI50 was below 0.01 µM.
The same measure, in the same setting: the figure for `Cc1cc(NC(=O)C(=O)N(C)C2COCc3cc(C4=CCOCC4)ccc32)cnc1N` (racemic) [compound 162] is 0.1 to 1 µM; for `Cn1ncc2c(NC(=O)C(=O)N(Cc3ccc(C(F)(F)F)cn3)CC3CCC3)cnc(N)c21` [Example 4] it is 0.01 to 0.1 µM.
In the case of `CC1OCc2c(NC(=O)C(=O)N(C)C3COCc4cc(C(F)(F)F)ccc43)cnc(N)c21` (single isomer, unassigned) [Example 146-P1], the GI50 is 0.1 to 1 µM.
On the same count and under the same terms, under `CN(C(=O)C(=O)Nc1cnc(N)c2c1cnn2C)C1COc2cc(Br)ccc21` (racemic) [compound 180] stands below 0.01 µM; under `Cc1cc(NC(=O)C(=O)N(Cc2ccc(C(F)(F)F)cn2)c2cnn(C)c2)cnc1N` [Example 18], 0.1 to 1 µM.
Same read-out and setting: under `Cc1cc(NC(=O)C(=O)N(Cc2ccc(C(F)(F)F)cn2)CC2CCCC2)cnc1N` [Example 17] stands 0.01 to 0.1 µM.
On the same count and under the same terms, the figure for `CN(C(=O)C(=O)Nc1cnc(N)c2c1cnn2C)C1COCc2cc(-c3cnn(C(F)(F)F)c3)ccc21` (racemic) [compound 231] is below 0.01 µM.
For `CC(C)C(C)N(Cc1ccc(C(F)(F)F)cn1)C(=O)C(=O)Nc1cnc(N)c2c1cnn2C` (stereo not shown) [Example 110-P2], the GI50 is below 0.01 µM.
Still for that read-out and setting: the figure for `Nc1ncc(NC(=O)C(=O)N(Cc2ccc(C(F)(F)F)cn2)CC2CCC2)c2c1COC2` [Example 41] is 0.1 to 1 µM.
Same read-out and setting: under `CN(C(=O)C(=O)Nc1cnc(N)c2c1cnn2C)C1COCc2cc(C(F)(F)F)ccc21` (stereo not shown) [Example 48] stands below 0.01 µM; under `Cc1cc(NC(=O)C(=O)N(C)Cc2ccc(C(F)(F)F)cn2)cnc1N` [Example 3], 1 to 10 µM.
The same measure, in the same setting: under `CN(C(=O)C(=O)Nc1cnc(N)c2c1cnn2C)C1COc2cc(-c3ccnn3C)ccc21` (racemic) [compound 192] stands below 0.01 µM; under `Cc1cc(NC(=O)C(=O)N(Cc2ccc(C(F)(F)F)cn2)C2CCCOC2)cnc1N` (single isomer, unassigned) [Example 14-P1], 0.1 to 1 µM; under `Cc1cc(/C=C/C(=O)N(Cc2ccc(C(F)(F)F)cn2)[C@H](C)c2ncccn2)cnc1N` [Example 6], above 10 µM.
`C[C@H](c1ncccn1)N(Cc1ccc(C(F)(F)F)cn1)C(=O)C(=O)Nc1cnc(N)c(F)c1` [Example 22]: the GI50 was 1 to 10 µM.
For `Cc1cc(N)ncc1NC(=O)C(=O)N(Cc1ccc(C(F)(F)F)cn1)[C@H](C)c1ncccn1` [Example 26], the GI50 fell in the range of 0.1 to 1 µM.
The same measure, in the same setting: under `C[C@H](c1ncccn1)N(Cc1ccc(C(F)(F)F)cn1)C(=O)C(=O)Nc1cnc(N)c(Cl)c1` [Example 23] stands 1 to 10 µM; under `CCC(C)N(Cc1ccc(C(F)(F)F)cn1)C(=O)C(=O)Nc1cnc(N)c2c1cnn2C` (stereo not shown) [Example 46-P2], 0.01 to 0.1 µM; under `CN(C(=O)C(=O)Nc1cnc(N)c2c1cnn2C)C1COCc2cc(-c3cnn(C4CC4)c3)ccc21` (racemic) [compound 223], below 0.01 µM.
Still for that read-out and setting: under `Cc1cc(NC(=O)C(=O)N(Cc2ccc(C(F)(F)F)cn2)C(C)c2cscn2)cnc1N` (single isomer, unassigned) [Example 19-P2] stands 0.01 to 0.1 µM.

(Values after patent EP4563571A1, “PRMT5 INHIBITORS” (Beijing Earthwise Technology Co., Ltd., priority 2022, dated 2024).)
